Data taken from US20250171407A1, “ULTRAVIOLET ABSORBER” (BASF SE, priority 2022, published 2025).

Test: Solubility test: visual assessment of defects in the dried paint of the stabilized coating formulation
Type: physicochemical
Source text: Each coating formulation A was stabilized with 1.0 or 3.0 active % based on resin solids of Tinuvin® 1130 (UV absorber, BASF SE), Tinuvin® 9945-DW (N) or inventive examples samples.
Each coating formulation further contained 1,0 active % based on resin solids of Tinuvin® 123DW (N) (HALS, BASF SE).
The clear coat formulations were subsequently applied by brush onto a wood substrate (thickness: two layers à 100 g/m^2 resulting after drying at room temperature in a final dry film thickness of ˜40 μm). The clear coat formulations were subsequently applied by draw-down onto a glass plate (thickness: one layer b 200 g/m^2 resulting after drying at room temperature in a final dry film thickness of ˜40 μm).
The solubility of above-described coating formulation containing one of the compounds obtained in examples 3, 11 and 27 in the amount given above was tested. The solubility was visually assessed qualitatively by presence of defects in the dried paint.

Tinuvin® 1130 [Example 27]
Presence of defects: no
